The NIST ThermoML archive (doi:10.1016/j.jct.2012.12.001)

Test: heat capacity at constant pressure per volume; xn = mol fraction of the nth substance listed
Details: 101 kPa, Liquid, DSC, x2 = 0.713

CCCCCCCCCCCCCCCCCC [octadecane] + N#Cc1ccccc1
Details	heat capacity [J/K/m3]
303.58 K	1893500
303.61 K	1895600
303.64 K	1894200
303.66 K	1894100
303.69 K	1893500
303.72 K	1893700
303.75 K	1897900
303.78 K	1897000
303.8 K	1893000
303.83 K	1895200
303.86 K	1892600
303.89 K	1900300
303.92 K	1898300
303.94 K	1898400
303.97 K	1899900
304 K	1891800
304.03 K	1897900
304.06 K	1900800
304.09 K	1899300
304.11 K	1897800
304.14 K	1899100
304.17 K	1900600
304.2 K	1897100
304.23 K	1902700
304.25 K	1900600
304.28 K	1893900
304.31 K	1900100
304.34 K	1897300
304.37 K	1899500
304.39 K	1898900
304.42 K	1904200
304.45 K	1900400
304.48 K	1895000
304.51 K	1898500
304.54 K	1903400
304.56 K	1902200
304.59 K	1903900
304.62 K	1901200
304.65 K	1901800
304.68 K	1903500
304.7 K	1904200
304.73 K	1899600
304.76 K	1899700
304.79 K	1900400
304.82 K	1904800
304.84 K	1903700
304.87 K	1904600
304.9 K	1904600
304.93 K	1903200
304.96 K	1902600
304.98 K	1900600
305.01 K	1902200
305.04 K	1902200
305.07 K	1903000
305.1 K	1907100
305.12 K	1903100
305.15 K	1908100
305.18 K	1904700
305.21 K	1904200
305.24 K	1905700
305.27 K	1907500
305.29 K	1908300
305.32 K	1908600
305.35 K	1908400
305.38 K	1906900
305.41 K	1907700
305.44 K	1908100
305.46 K	1909400
305.49 K	1908500
305.52 K	1909000
305.55 K	1908400
305.57 K	1909200
305.6 K	1906500
305.63 K	1908200
305.66 K	1908500
305.69 K	1909100
305.72 K	1909500
305.74 K	1911100
305.77 K	1910000
305.8 K	1907500
305.83 K	1908700
305.86 K	1914100
305.88 K	1911500
305.91 K	1910100
305.94 K	1909200
305.97 K	1909700
306 K	1906900
306.02 K	1909600
306.05 K	1913100
306.08 K	1913500
306.11 K	1917400
306.14 K	1917300
306.17 K	1913000
306.19 K	1914700
306.22 K	1914300
306.25 K	1915600
306.28 K	1918100
306.31 K	1915700
306.33 K	1916100
306.36 K	1913300
306.39 K	1910700
306.42 K	1914500
306.45 K	1911200
306.48 K	1914800
306.5 K	1918100
306.53 K	1921200
306.56 K	1920200
306.59 K	1916400
306.62 K	1922000
306.64 K	1923600
306.67 K	1922600
306.7 K	1921800
306.73 K	1922000
306.76 K	1921100
306.78 K	1915500
306.81 K	1915900
306.84 K	1920400
306.87 K	1916900
306.9 K	1923600
306.93 K	1927300
306.95 K	1929700
306.98 K	1927500
307.01 K	1924100
307.04 K	1928000
307.06 K	1932100
307.09 K	1924600
307.12 K	1927400
307.15 K	1929100
307.18 K	1928200
307.21 K	1926400
307.23 K	1925500
307.26 K	1931000
307.29 K	1928800
307.32 K	1935200
307.35 K	1931700
307.37 K	1930400
307.4 K	1932600
307.43 K	1934400
307.46 K	1934700
307.49 K	1935300
307.51 K	1940700
307.54 K	1937500
307.57 K	1936300
307.6 K	1936200
307.63 K	1932400
307.66 K	1937300
307.68 K	1942100
307.71 K	1944000
307.74 K	1939900
307.77 K	1932400
307.8 K	1938300
307.82 K	1947000
307.85 K	1949300
307.88 K	1946700
307.91 K	1938400
307.94 K	1933900
307.96 K	1951300
307.99 K	1961700
308.02 K	1944900
308.05 K	1926900
308.08 K	1941200
308.11 K	1958000
308.13 K	1970100
308.16 K	1961600
308.19 K	1937100
308.22 K	1930400
308.25 K	1946700
308.27 K	1964400
308.3 K	1971900
308.33 K	1970700
308.36 K	1959500
308.39 K	1936500
308.42 K	1912300
308.44 K	1924300
308.47 K	1951900
308.5 K	2008600
308.53 K	2043600
308.56 K	2018100
308.58 K	1941300
308.61 K	1912700
308.64 K	1927600
308.67 K	1961900
308.7 K	1999600
308.72 K	2029400
308.75 K	2032700
308.78 K	1994600
308.81 K	1952000
308.84 K	1951000
308.87 K	1967200
308.89 K	1986400
308.92 K	2016500
308.95 K	2025600
308.98 K	1992600
309 K	1977300
309.03 K	1975500
309.06 K	1984100
309.09 K	2003300
309.12 K	2020100
309.15 K	2018700
309.17 K	2001300
309.2 K	1997100
309.23 K	1999200
309.26 K	2022000
309.29 K	2056100
309.31 K	2064600
309.34 K	2035200
309.37 K	2025000
309.4 K	2039600
309.43 K	2070400
309.45 K	2095200
309.48 K	2108700
309.51 K	2150900
309.54 K	2201100
309.57 K	1939300
309.6 K	1869500
309.62 K	1848200
309.65 K	1833800
309.68 K	1826700
309.71 K	1819300
309.74 K	1817500
309.76 K	1810200
309.79 K	1806800
309.82 K	1803600
309.85 K	1800700
309.88 K	1798700
309.9 K	1794300
309.93 K	1792100
309.96 K	1792800
309.99 K	1790300
310.02 K	1787500
310.05 K	1785800
310.07 K	1787100
310.1 K	1782100
310.13 K	1784300
310.16 K	1779800
310.19 K	1779800
310.21 K	1778600
310.24 K	1778600
310.27 K	1775500
310.3 K	1773400
310.33 K	1772700
310.35 K	1774100
310.38 K	1771100
310.41 K	1773500
310.44 K	1771400
310.47 K	1770500
310.5 K	1768500
310.52 K	1769800
310.55 K	1768900
310.58 K	1766300
310.61 K	1764600
310.64 K	1764400
310.66 K	1764600
310.69 K	1763300
310.72 K	1763400
310.75 K	1765000
310.78 K	1762800
310.8 K	1762200
310.83 K	1757300
310.86 K	1761100
310.89 K	1760100
310.92 K	1760700
310.94 K	1761100
310.97 K	1760600
311 K	1759800
311.03 K	1759800
311.06 K	1758100
311.09 K	1757600
311.11 K	1758300
311.14 K	1758800
311.17 K	1757800
311.2 K	1757900
311.23 K	1756900
311.25 K	1754900
311.28 K	1754400
